Data published in patent US8980564B2, “Predictive markers for taxane responsiveness and methods of use thereof” (The Governors of the University of Alberta, priority 2009, dated 2015).

Columns and labels:
Bad = experiment: Subcellular fractionation, Bad localization by Western blotting; conditions: MCF-7, MDA-MB-468, SKBR-3; 25 nM paclitaxel 48 h or 2.5 uM STS 4 hours
Bad:Bcl-XL = experiment: Co-immunoprecipitation of Bad with Bcl-XL; conditions: 25 nM paclitaxel 48 h or 2.5 uM STS 4 hours
breast cancer = experiment: Survival analysis of breast cancer patients after adjuvant docetaxel-based chemotherapy, stratified by Bad staining; assay type: in vivo, human; conditions: 180 women, multivariate modeling
Protocol: Tissue micoarrays were made from formalin fixed breast tissues in triplicate 0.6 mm cores using the TMArrayer™. Tissues on slides were deparaffinized in xylene and rehydrated in decreasing concentrations of ethanol to water. Endogenous peroxidase was quenched in 0.3% H2O2 for 10 minutes. For antigen retrieval, slides were placed in boiling citrate buffer pH 6.0 for 10 minutes followed by rinsing in water for 10 minutes. Tissues were incubated with the BAD antibody (Cell Signaling Technology) at a dilution of 1/25 at 4° C. overnight in a humidified container or with Bik antibody (Cell signaling Technology) at a dilution of 1/50 at room temperature in a humidified container. Slides were washed 2 times in PBS for 5 minutes. For the secondary antibody, Anti-Rabbit EnVision+System-HRP (Dako) was incubated on the tissues at room temperature for 30 minutes. Slides were washed 2 times in PBS and then tissues were incubated with DAB (Dako) for 10 minutes. Slides were rinsed in water for 10 minutes followed by a soak in 1% Copper Sulfate for 5 minutes. Haematoxylin was used to counterstain the tissues. […] Staining intensity was scored as 0 (absent), 1 (weak), or 2 (strong). […] Using ROC, an optimized cutpoint of 0.57 was chosen for Bad expression and an optimized cutpoint of 0.1 was chosen for Bik expression, and patients were analyzed based on this cutpoint. […]

MCF-7 cell line = experiment: Apoptosis assays (TMRE loss, annexin V) in MCF-7; assay type: cell-based, human; conditions: 25 nM paclitaxel
Protocol: (§1) Apoptosis assays were performed as described previously (Czernick et al., 2009). Briefly, breast cancer cell lines were treated with dimethyl sulfoxide (DMSO) vehicle control or 25 nM paclitaxel, which corresponds to a clinically relevant dose (Blagosklonny and Fojo, 1999; Jordan et al., 1996). After treatment, samples were divided and analyzed for apoptosis. Apoptosis was evaluated by fluorescence-activated cell sorting (FACS) analysis using the following apoptotic markers: (i) mitochondrial dysfunction [loss of mitochondrial electrochemical potential and decreases in tetramethyl rhodamine ethyl ester (TMRE)]. Percent specific TMRE loss was determined as (% TMRE negative cells of treated sample−% TMRE negative cells of untreated control sample); (ii) increases in phosphatidylserine externalization (Annexin V). Percent specific annexin V positivity was determined as (% annexin V positive cells of treated sample−% annexin V positive cells of untreated control sample).
Each cell line was treated with 25 nM of paclitaxel, which induces a clinically relevant intracellular accumulation of the drug in tissue culture conditions (Derry et al., 1998; Jordan et al., 1996). After the indicated amount of time, apoptosis was assessed by measuring mitochondrial electrochemical potential loss (TMRE loss) and phosphatidyl serine externalization (annexin V positivity) (FIG. 1A).

breast cancer cell lines = experiment: Apoptosis assays (TMRE loss, annexin V) in a panel of five breast cancer cell lines; assay type: cell-based, human; conditions: 25 nM paclitaxel; TMRE loss and annexin V positivity
Protocol: as §1
To investigate which BH3-only proteins are involved in paclitaxel-induced apoptosis, a panel of five validated breast cancer cell lines acquired from Dr. Gordon Mills (M.D. Anderson Cancer Center, U. of Texas) was analyzed; validated cells were used to avoid any controversy with respect to lineage authenticity (Graham et al., 1986; Osborne et al., 1987). […]

Bcl-XL = Bcl-XL protein level in treated cells; assay type: cell-based, human; conditions: paclitaxel-treated cells
From the text: In fact, mitotic arrest-mediated repression of Bcl-XL contributes to cell death via liberation of Bax (Upreti et al., 2008).

MCF-7 cells = experiment: DNA content analysis by propidium iodide staining (cell cycle); assay type: cell-based, human; conditions: up to 24 hours in paclitaxel
Protocol: Samples were fixed at −20° C. in ice-cold 70% ethanol for a minimum of 24 hours. After fixation, the samples were stained with 20 ug/ml propidium iodide, 2 mg/ml RNase, 0.1% Triton X-100 in PBS for 30 minutes at 4° C. Samples were analyzed in the FL-2 channel on the FACScan as previously described, with the exception that doublet discrimination was achieved by gating on the smaller width G2 cells as determined by analysis of pulse width versus pulse area (Goping et al., 2008).
To verify that the increased proportion of cells in G1 was due to delayed G1 exit and not increased G1 entry, G1 entry was inhibited by arresting cells at G2/M with paclitaxel. […] In time course analyses, the progression of cells from G1 through S to G2/M was delayed in Bad-depleted cells relative to control transfected cells. […] Based on these observations, and again while not wishing to be bound by theory, it was concluded that Bad contributes to cell cycle progression by facilitating exit from the G1 phase of the cell cycle and is supported by a similar role of Bad in rat fibroblasts (Chattopadhyay et al., 2001).

CN[C@@H]1C[C@H]2O[C@@](C)([C@@H]1OC)n1c3ccccc3c3c4c(c5c6ccccc6n2c5c31)C(=O)NC4 [STS, staurosporine]
mitochondrial translocation of Bad (Bad): migrated to mitochondria
association of Bad and Bcl-XL (Bad:Bcl-XL): remained as a complex

CC(=O)O[C@@]12CO[C@@H]1C[C@H](O)[C@@]1(C)C(=O)[C@H](O)C3=C(C)[C@@H](OC(=O)[C@H](O)[C@@H](NC(=O)OC(C)(C)C)c4ccccc4)C[C@@](O)([C@@H](OC(=O)c4ccccc4)[C@H]21)C3(C)C [docetaxel]
hazard ratio of relapse, low Bad tumour staining intensity (breast cancer; 95% CI 1.05-3.66): 1.96
death hazard ratio, low Bad tumour staining intensity (breast cancer; 95% CI 1.05-3.66 as printed): 3.65

CC(=O)O[C@H]1C(=O)[C@@]2(C)[C@H]([C@H](OC(=O)c3ccccc3)[C@]3(O)C[C@H](OC(=O)[C@H](O)[C@@H](NC(=O)c4ccccc4)c4ccccc4)C(C)=C1C3(C)C)[C@]1(OC(C)=O)CO[C@@H]1C[C@@H]2O [paclitaxel]
cell death based on mitochondrial dysfunction and cellular morphology (MCF-7 cell line; MCF-7): induced significant death
loss of mitochondrial potential (TMRE loss) (MCF-7 cell line; MCF-7): robust loss of mitochondrial potential
phosphatidyl serine externalization (annexin V positivity) (MCF-7 cell line; MCF-7, cells do not express caspase 3): blunted
relative paclitaxel sensitivities of the breast cancer cell lines, rank order of increasing sensitivity (breast cancer cell lines): MDA-MB-231, T47-D, MDA-MB-468, MCF-7 and SKBR-3
mitochondrial translocation of Bad (Bad): did not induce mitochondrial translocation of Bad
levels of Bcl-XL protein (Bcl-XL): reduced levels of Bcl-XL protein
association of Bad and Bcl-XL (Bad:Bcl-XL): decreased association of Bad and Bcl-XL
mitotic arrest (G2/M) (MCF-7 cells): induced mitotic arrest
